From ChEMBL document CHEMBL3885881, “DrugMatrix”

Organism: Rattus norvegicus
Assay: DrugMatrix - Regimen: Daily Repeat
Assay type: toxicity, organism-based, Sprague-Dawley
Design: regimen Daily Repeat, gender Male, age 6-8 weeks
Details: in vivo, po, […], route oral GAVAGE, dose 7.5 mg/Kg, dose level Low; for ABSOLUTE BASOPHIL / ABSOLUTE EOSINOPHIL / ABSOLUTE LYMPHOCYTE / ABSOLUTE MONOCYTE / ABSOLUTE SEGMENTED NEUTROPHIL / BASOPHIL / EOSINOPHIL / ERYTHROCYTE COUNT / HEMATOCRIT / HEMOGLOBIN / LEUKOCYTE COUNT / LYMPHOCYTE / MEAN CORPUSCULAR HEMOGLOBIN / MEAN CORPUSCULAR HEMOGLOBIN CONCENTRATION / MEAN CORPUSCULAR VOLUME / MONOCYTE / NEUTROPHIL / NUCLEATED RED BLOOD CELLS / PLATELET COUNT: tissue Blood; for ALANINE AMINOTRANSFERASE / ALBUMIN / ALKALINE PHOSPHATASE / ASPARTATE AMINOTRANSFERASE / BLOOD UREA NITROGEN / CARBON DIOXIDE / CHLORIDE / CHOLESTEROL / CREATINE PHOSPHOKINASE / CREATININE / GLUCOSE / LACTATE DEHYDROGENASE / LIPASE / PHOSPHORUS / POTASSIUM / SODIUM / TOTAL BILIRUBIN / TOTAL PROTEIN / URIC ACID: tissue Plasma

C[C@@H]1CC[C@@]2(OC1)O[C@H]1[C@@H](O)[C@H]3[C@@H]4CC[C@H]5C[C@@H](O[C@@H]6O[C@H](CO)[C@H](O[C@@H]7O[C@H](CO)C(O)[C@H](O[C@@H]8OC[C@@H](O)[C@H](O)[C@H]8O)[C@H]7O[C@@H]7O[C@H](CO)[C@H](O)[C@H](O[C@@H]8O[C@H](CO)[C@@H](O)[C@H](O)[C@H]8O)[C@H]7O)[C@H](O)[C@H]6O)[C@H](O)C[C@]5(C)[C@H]4CC[C@]3(C)[C@H]1[C@@H]2C (stereo partly specified) [DIGITONIN]
ABSOLUTE BASOPHIL (72 h, time 3 day): 0 CELLS/uL | ABSOLUTE EOSINOPHIL (72 h, time 3 day): 77.33 CELLS/uL | ABSOLUTE LYMPHOCYTE (72 h, time 3 day): 10391.33 CELLS/uL | ABSOLUTE MONOCYTE (72 h, time 3 day): 34.33 CELLS/uL | ABSOLUTE SEGMENTED NEUTROPHIL (72 h, time 3 day): 1397 CELLS/uL | BASOPHIL (72 h, time 3 day): 0% | EOSINOPHIL (72 h, time 3 day): 0.67% | ERYTHROCYTE COUNT (72 h, time 3 day): 5.69 x10E6/uL | HEMATOCRIT (72 h, time 3 day): 35.5% | HEMOGLOBIN (72 h, time 3 day): 13.27 G/DL | LEUKOCYTE COUNT (72 h, time 3 day): 11.9 x10E3/uL | LYMPHOCYTE (72 h, time 3 day): 87.33% | MEAN CORPUSCULAR HEMOGLOBIN (72 h, time 3 day): 23.33 pg | MEAN CORPUSCULAR HEMOGLOBIN CONCENTRATION (72 h, time 3 day): 37.4 G/DL | MEAN CORPUSCULAR VOLUME (72 h, time 3 day): 62.47 fL | MONOCYTE (72 h, time 3 day): 0.33% | NEUTROPHIL (72 h, time 3 day): 11.67% | NUCLEATED RED BLOOD CELLS (72 h, time 3 day): 0 /100WBC | PLATELET COUNT (72 h, time 3 day): 1266.67 x10E3/uL | ALANINE AMINOTRANSFERASE (72 h, time 3 day): 59.33 u/L | ALBUMIN (72 h, time 3 day): 4.13 G/DL | ALKALINE PHOSPHATASE (72 h, time 3 day): 424 u/L | ASPARTATE AMINOTRANSFERASE (72 h, time 3 day): 79 u/L | BLOOD UREA NITROGEN (72 h, time 3 day): 14 mg/dL | CARBON DIOXIDE (72 h, time 3 day): 25.67 mmol/L | CHLORIDE (72 h, time 3 day): 100.67 MEQ/L | CHOLESTEROL (72 h, time 3 day): 70.67 mg/dL | CREATINE PHOSPHOKINASE (72 h, time 3 day): 187 u/L | CREATININE (72 h, time 3 day): 0.18 mg/dL | GLUCOSE (72 h, time 3 day): 156.33 mg/dL | LACTATE DEHYDROGENASE (72 h, time 3 day): 100.33 u/L | LIPASE (72 h, time 3 day): 8.67 u/L | PHOSPHORUS (72 h, time 3 day): 12.73 mg/dL | POTASSIUM (72 h, time 3 day): 6.51 MEQ/L | SODIUM (72 h, time 3 day): 145.03 MEQ/L | TOTAL BILIRUBIN (72 h, time 3 day): 0.23 mg/dL | TOTAL PROTEIN (72 h, time 3 day): 5.73 G/DL | URIC ACID (72 h, time 3 day): 2.23 mg/dL | ABSOLUTE BASOPHIL (120 h, time 5 day): 0 CELLS/uL | ABSOLUTE EOSINOPHIL (120 h, time 5 day): 102 CELLS/uL | ABSOLUTE LYMPHOCYTE (120 h, time 5 day): 14620 CELLS/uL | ABSOLUTE MONOCYTE (120 h, time 5 day): 219 CELLS/uL | ABSOLUTE SEGMENTED NEUTROPHIL (120 h, time 5 day): 1792.33 CELLS/uL | BASOPHIL (120 h, time 5 day): 0% | EOSINOPHIL (120 h, time 5 day): 0.67% | ERYTHROCYTE COUNT (120 h, time 5 day): 5.47 x10E6/uL | HEMATOCRIT (120 h, time 5 day): 35.23% | HEMOGLOBIN (120 h, time 5 day): 13.57 G/DL | LEUKOCYTE COUNT (120 h, time 5 day): 16.73 x10E3/uL | LYMPHOCYTE (120 h, time 5 day): 87.33% | MEAN CORPUSCULAR HEMOGLOBIN (120 h, time 5 day): 24.83 pg | MEAN CORPUSCULAR HEMOGLOBIN CONCENTRATION (120 h, time 5 day): 38.5 G/DL | MEAN CORPUSCULAR VOLUME (120 h, time 5 day): 64.37 fL | MONOCYTE (120 h, time 5 day): 1.33% | NEUTROPHIL (120 h, time 5 day): 10.67% | NUCLEATED RED BLOOD CELLS (120 h, time 5 day): 0 /100WBC | PLATELET COUNT (120 h, time 5 day): 1216 x10E3/uL | ALANINE AMINOTRANSFERASE (120 h, time 5 day): 57.33 u/L | ALBUMIN (120 h, time 5 day): 4.3 G/DL | ALKALINE PHOSPHATASE (120 h, time 5 day): 437 u/L | ASPARTATE AMINOTRANSFERASE (120 h, time 5 day): 80.33 u/L | BLOOD UREA NITROGEN (120 h, time 5 day): 14.67 mg/dL | CARBON DIOXIDE (120 h, time 5 day): 28.67 mmol/L | CHLORIDE (120 h, time 5 day): 100.67 MEQ/L | CHOLESTEROL (120 h, time 5 day): 53.67 mg/dL | CREATINE PHOSPHOKINASE (120 h, time 5 day): 222.67 u/L | CREATININE (120 h, time 5 day): 0.22 mg/dL | GLUCOSE (120 h, time 5 day): 160.33 mg/dL | LACTATE DEHYDROGENASE (120 h, time 5 day): 207.67 u/L | LIPASE (120 h, time 5 day): 8 u/L | PHOSPHORUS (120 h, time 5 day): 11.63 mg/dL | POTASSIUM (120 h, time 5 day): 6.09 MEQ/L | SODIUM (120 h, time 5 day): 144.37 MEQ/L | TOTAL BILIRUBIN (120 h, time 5 day): 0.2 mg/dL | TOTAL PROTEIN (120 h, time 5 day): 6.03 G/DL | URIC ACID (120 h, time 5 day): 1.47 mg/dL
